Key:
[1] = system: Vancomycin resistant Enterococcus faecalis; assay: Broth microdilution minimum inhibitory concentration; type: cell-based; conditions: compound alone
Method: (§1) Antibacterial activity of the synthesized compounds was determined following guidelines established by the Clinical and Laboratory Standards Institute M07-A10 (CLSI 2015), following the broth microdilution method. Briefly, the test articles were dissolved in 100% DMSO, diluted by 2-fold serial titrations in the same vehicle (100% DMSO), for a total of 11 concentrations. A 4 μL aliquot of each dilution was then added to 196 μL of broth medium seeded with the bacterial suspension in wells of a 96 well plate (bacterial count: 2×10^5 to 8×10^5 colony forming units/mL final). The highest test substance concentration was 1028 μg/mL, and the final vehicle concentration was 2 percent. Following incubation, the test plate was visually examined, and each well was scored for growth or complete inhibition of growth. The minimum inhibitory concentration was determined as the lowest concentration were no growth of the bacterial was observed. Each test article was assayed in duplicate.

[2] = system: Carbapenem resistant Acinetobacter baumannii; assay: as above; type: cell-based; conditions: compound alone
Method: as §1

[3] = system: Multidrug resistant Pseudomonas aeruginosa; assay: as above; type: cell-based; conditions: compound alone
Method: as §1

[4] = system: Methicillin resistant Staphylococcus aureus; assay: as above; type: cell-based; conditions: compound alone
Method: as §1

[5] = system: Carbapenem resistant Klebsiella pneumoniae; assay: as above; type: cell-based; conditions: compound alone
Method: as §1

P. aeruginosa = assay: Rescue concentration of substituted phenyl azaindole derivatives; type: cell-based; conditions: Imipenem fixed at 1 μg/mL
Method: (§2) The antibiotic adjuvant activity of the SPazaBIMs were evaluated in combination with representative antibiotics (representing 13 antibiotic classes) against the 19 pathogens strains listed in Table 3. To assess the adjuvant properties of the SP-azaBIM molecules, a modified checkerboard minimum inhibitory concentration assay was used. A fixed concentration of the respective antibiotic (susceptible breakpoint concentration) was mixed with a twofold dilution series of the test SP-azaBIM (FIG. 1). This was to determine the concentration of SP-azaBIM needed potentiate the antibiotic at a clinically susceptible breakpoint concentration. Antibiotic susceptible breakpoint concentrations for the respective bacteria were determined using Clinical Laboratory Standards Institute (CLSI) criteria M100 ED31.
(§3) In this study, only those antibiotics to which the bacterial was classed as resistant were included in the adjuvant assays. In this assay we recorded the rescue concentration of the SP-BIM for a respective antibiotic. The rescue concentration was defined as the concentration of the adjuvant that reduces the minimum inhibitory concentration (MIC) of an antibiotic to the susceptibility breakpoint.
(§4) Immediately prior to testing, the respective antibiotic and SP-azaBIM was dissolved in sterile deionised water at 20× the required test concentration. Each microtiter well was then inoculated with 180 μl of bacterial inoculum of 10^6 CFU/ml in ca-MHB, and 10 μl each if the antibiotic and SP-azaBIM was added to the plates. These plates were then incubated at 35° C. for 24 h under aerobic conditions. A similar method was followed for the fastidious pathogens except that they were cultured in ca-MHB with 5% sheep blood and 5% CO2.
Bacterial growth was visually inspected after the incubation period and the rescue concentration of the test SP-azaBIM was determined as the lowest concentration of the compound needed to reduce bacterial growth by 99.99% at the susceptible breakpoint concentration of the antibiotic. […] If the bacteria can tolerate this concentration in vitro, then the bacteria has an intermediate or absolute resistance toward that antibiotic. […]
(§5) Phenyl azaindole compounds are also tested for their adjuvant activities and the method is shown in Example 39.

MRSA = assay: as above; type: cell-based, Staphylococcus aureus; conditions: Amoxicillin fixed at 2 μg/mL
Method: as §2, §3, §4
(§6) Bacterial growth was visually inspected after the incubation period and the rescue concentration of the test SP-azaBIM was determined as the lowest concentration of the compound needed to reduce bacterial growth by 99.99% at the susceptible breakpoint concentration of the antibiotic. For example, CLSI states that Pseudomonas aeruginosa is susceptible to the Imipenem if the MIC is ≤2 μg mL^−1. If the bacteria can tolerate this concentration in vitro, then the bacteria has an intermediate or absolute resistance toward that antibiotic. The goal was to determine the concentration of SP-azaBIM needed to cause P. aeruginosa death at 2 μg mL^−1 of Imipenem therefore restoring susceptibility of the bacteria to toward the antibiotic.
as §5

K. pneumoniae = assay: as above; type: cell-based; conditions: for Rescue concentration, K. pneumoniae Ciprofloxacin (1 μg/mL): Ciprofloxacin fixed at 1 μg/mL; for Rescue concentration, K. pneumoniae Imipenem (1 μg/mL): Imipenem fixed at 1 μg/mL
Method: as §2, §3, §4, §6, §5

| MIC [1] | MIC [2] | MIC [3] | MIC [4] | MIC [5] | SMILES | Rescue concentration, P. aeruginosa Imipenem (1 μg/mL) (P. aeruginosa) | Rescue concentration, MRSA Amoxicillin (2 μg/mL) (MRSA) | Rescue concentration, K. pneumoniae Ciprofloxacin (1 μg/mL) (K. pneumoniae) | Rescue concentration, K. pneumoniae Imipenem (1 μg/mL) (K. pneumoniae) |
| --- | --- | --- | --- | --- | --- | --- | --- | --- | --- |
| < 1020 µg/mL | < 1020 µg/mL | < 1020 µg/mL | < 1020 µg/mL | < 1020 µg/mL | O=[N+]([O-])c1ccc(C(O)c2c[nH]c3ncc(Cl)cc23)cc1 (stereo not drawn) [4NO2-5Cl-7aza-OH, (5-chloro-1H-pyrrolo[2,3-b]pyridin-3-yl)(4-nitrophenyl)methanol] | <256 µg/mL | 32 µg/mL | <256 µg/mL | <256 µg/mL |
| < 1020 µg/mL | < 1020 µg/mL | < 1020 µg/mL | < 1020 µg/mL | < 1020 µg/mL | O=[N+]([O-])c1ccccc1C(O)c1c[nH]c2cnccc12 (stereo not drawn) [Compound 2NO2-6aza-OH, (2-nitrophenyl)(1H-pyrrolo[2,3-c]pyridin-3-yl)methanol] | <256 µg/mL | 256 µg/mL | 256 µg/mL | 128 µg/mL |
| < 1020 µg/mL | < 1020 µg/mL | < 1020 µg/mL | < 1020 µg/mL | < 1020 µg/mL | O=[N+]([O-])c1ccc(C(O)c2c[nH]c3ncc(F)cc23)cc1 (stereo not drawn) [4NO2-5Fl-7aza-OH, (5-fluoro-1H-pyrrolo[2,3-b]pyridin-3-yl)(4-nitrophenyl)methanol] | <256 µg/mL | 16 µg/mL | <256 µg/mL | <256 µg/mL |
| < 1020 µg/mL | < 1020 µg/mL | < 1020 µg/mL | < 1020 µg/mL | < 1020 µg/mL | O=Cc1cccc(C(O)c2c[nH]c3c(Cl)nccc23)c1 (stereo not drawn) [iso-7Cl-6aza-OH, 3-((7-chloro-1H-pyrrolo[2,3-c]pyridin-3-yl)(hydroxy)methyl)benzaldehyde] | <256 µg/mL | 32 µg/mL | <256 µg/mL | <256 µg/mL |
| < 1020 µg/mL | < 1020 µg/mL | < 1020 µg/mL | < 1020 µg/mL | < 1020 µg/mL | OC(c1ccc(Br)cc1)c1c[nH]c2cnc(Cl)cc12 (stereo not drawn) [4Br-5Cl-6aza-OH, (4-bromophenyl)(5-chloro-1H-pyrrolo[2,3-c]pyridin-3-yl)methanol] | <256 µg/mL | 0.5 µg/mL | <256 µg/mL | <256 µg/mL |
| < 1020 µg/mL | < 1020 µg/mL | < 1020 µg/mL | < 1020 µg/mL | < 1020 µg/mL | O=[N+]([O-])c1cccc(C(O)c2c[nH]c3ncc(F)cc23)c1 (stereo not drawn) [3NO2-5Fl-7aza-OH, (5-fluoro-1H-pyrrolo[2,3-b]pyridin-3-yl)(3-nitrophenyl)methanol] | <256 µg/mL | 128 µg/mL | <256 µg/mL | <256 µg/mL |
| < 1020 µg/mL | < 1020 µg/mL | < 1020 µg/mL | < 1020 µg/mL | < 1020 µg/mL | O=[N+]([O-])c1ccc(C(O)c2c[nH]c3cnc(Cl)cc23)cc1 (stereo not drawn) [4NO2-5Cl-6aza-OH, (5-chloro-1H-pyrrolo[2,3-c]pyridin-3-yl)(4-nitrophenyl)methanol] | 128 µg/mL | <256 µg/mL | <256 µg/mL | <256 µg/mL |
| < 1020 µg/mL | < 1020 µg/mL | < 1020 µg/mL | < 1020 µg/mL | < 1020 µg/mL | O=[N+]([O-])c1cccc(C(c2c[nH]c3cnccc23)c2c[nH]c3cnccc23)c1 [3NO2-Bis-6aza, 3,3′-((3-nitrophenyl)methylene)bis(1H-pyrrolo[2,3-c]pyridine)] | <256 µg/mL | <256 µg/mL | <256 µg/mL | <256 µg/mL |
| < 1020 µg/mL | < 1020 µg/mL | < 1020 µg/mL | < 1020 µg/mL | < 1020 µg/mL | O=[N+]([O-])c1ccc(C(O)c2c[nH]c3cnc(Br)cc23)cc1 (stereo not drawn) [4NO2-5Br-6aza-OH, (5-bromo-1H-pyrrolo[2,3-c]pyridin-3-yl)(4-nitrophenyl)methanol] | <256 µg/mL | 32 µg/mL | <256 µg/mL | <256 µg/mL |
| < 1020 µg/mL | < 1020 µg/mL | < 1020 µg/mL | < 1020 µg/mL | < 1020 µg/mL | OC(c1ccc(Br)cc1)c1c[nH]c2cnccc12 (stereo not drawn) [Compound 4Br-6aza-OH, (4-bromophenyl)(1H-pyrrolo[2,3-c]pyridin-3-yl)methanol] | 16 µg/mL | 32 µg/mL | 4 µg/mL | 8 µg/mL |
| < 1020 µg/mL | < 1020 µg/mL | < 1020 µg/mL | < 1020 µg/mL | < 1020 µg/mL | O=[N+]([O-])c1ccc(C(O)c2c[nH]c3c(Cl)nc(Br)cc23)cc1 (stereo not drawn) [4NO2-5Br-7Cl-6aza-OH, (5-bromo-7-chloro-1H-pyrrolo[2,3-c]pyridin-3-yl)(4-nitrophenyl)methanol] | <256 µg/mL | 16 µg/mL | <256 µg/mL | <256 µg/mL |
| < 1020 µg/mL | < 1020 µg/mL | < 1020 µg/mL | < 1020 µg/mL | < 1020 µg/mL | OC(c1ccc(Br)cc1)c1c[nH]c2c(Cl)nccc12 (stereo not drawn) [4Br-7Cl-6aza-OH, (4-bromophenyl)(7-chloro-1H-pyrrolo[2,3-c]pyridin-3-yl)methanol] | <256 µg/mL | 2 µg/mL | <256 µg/mL | <256 µg/mL |
| < 1020 µg/mL | < 1020 µg/mL | < 1020 µg/mL | < 1020 µg/mL | < 1020 µg/mL | O=Cc1cccc(C(O)c2c[nH]c3cnccc23)c1 (stereo not drawn) [ISO-6aza-OH, 3-(hydroxy(1H-pyrrolo[2,3-c]pyridin-3-yl)methyl)benzaldehyde] | <256 µg/mL | 64 µg/mL | <256 µg/mL | <256 µg/mL |
| < 1020 µg/mL | < 1020 µg/mL | < 1020 µg/mL | < 1020 µg/mL | < 1020 µg/mL | COc1ccc(C(O)c2c[nH]c3cnc(Br)cc23)cc1OC (stereo not drawn) [3,4 Di methoxy 5Br-6aza-OH, (5-bromo-1H-pyrrolo[2,3-c]pyridin-3-yl)(3,4-dimethoxyphenyl)methanol] | <256 µg/mL | 2 µg/mL | <256 µg/mL | <256 µg/mL |
